Results from US20260078108A1, “SOLID FORMS OF A ROCK INHIBITOR” (REDX PHARMA PLC, priority 2022, published 2026).
Counter-ions that a name gives are not always drawn.

What was measured:
[1] = 7-day stability testing of solid forms (HPLC purity, XRPD); type: physicochemical; details: for Purity (area %) / Decrease in purity versus Day 0: listed as HCI salt Form II
Protocol: About 10 mg of freebase Form I, HCl salt Form II, Succinate Form I and received HCl salt Form I were placed at 60° C./capped and 40° C./75% RH (open), respectively. Samples were prepared in duplicate for each condition. At day 0 and day 7, the samples were analyzed by HPLC and XRPD to check the purity and crystal form, respectively.

[2] = test system: animal models of inflammatory bowel disease; details: multiple animal models of inflammatory bowel disease; preclinical data, background; cited from earlier work
[3] = Longer term stability of HCl salt form II (HPLC, XRPD; 1 and 3 months); type: physicochemical
Protocol: Samples were prepared in duplicate for each condition. At day 0 and at 1 month, and 3 months, the samples were analyzed by HPLC and XRPD to check the purity and crystal form, respectively.

[4] = Solubility testing in water, SGF, FaSSIF, FeSSIF at 37° C.; type: physicochemical; details: for Solubility: 37° C.
Protocol: About 15 mg of sample was weighed into each sample vial and then 3.0 mL of water, simulated gastric fluid (SGF), Fasted State Simulated Intestinal Fluid (FaSSIF) or Fed State Simulated Intestinal Fluid (FeSSIF) media was added. Samples were prepared in triplicate for each media. The suspensions were kept shaking at 37° C. for up to 24 h. At 0.5, 2 and 24 h, suspensions were filtered and the filtrate was analyzed by HPLC.

[5] = 25° C.±2° C., 60% RH±5% RH, T1 month
[6] = 25° C.±2° C., 60% RH±5% RH, T3 month
[7] = 40° C.±2° C., 74% RH±5% RH, T1 month
[8] = 40° C.±2° C., 74% RH±5% RH, T3 month

SMILES: NCc1ccc(C(=O)Nc2ccncc2F)cc1-c1cccc(C(=O)Nc2ccc(SCC3CCOC3=O)cc2)c1 (centres unmarked) [Compound A, 4-(aminomethyl)-N-(3-fluoropyridin-4-yl)-3-{3-[(4-{[(2-oxooxolan-3-yl)methyl]sulfanyl}phenyl)carbamoyl]phenyl}benzamide]
- Stability (in words) ([1]; chemical stability of solid forms, comparison): low chemical stability
- Anti-fibrotic therapeutic effects [2]: strong anti-fibrotic therapeutic effects

SMILES: NCc1ccc(C(=O)Nc2ccncc2F)cc1-c1cccc(C(=O)Nc2ccc(SC[C@H]3CCOC3=O)cc2)c1 [HCl salt Form II]
- Purity (area %) ([1]; Day 0, HPLC): 98.65 area %
- XRPD (crystal form) ([1]; Day 7, 40° C./75% RH (open)): No change
- Purity (area %) ([1]; Day 7, 40° C./75% RH (open), HPLC): 98.48 area %
- Decrease in purity versus Day 0 ([1]; Day 7, 40° C./75% RH (open)): 0.2 area %
- XRPD (crystal form) ([1]; Day 7, 60° C./capped): No change
- Purity (area %) ([1]; Day 7, 60° C./capped, HPLC): 98.45 area %
- Decrease in purity versus Day 0 ([1]; Day 7, 60° C./capped): 0.2 area %
- Longer term stability (in words) ([3]; 25° C./60% RH and accelerated 40° C./75% RH): stable for up to 3 months even under accelerated conditions
- Assay by HPLC (water and solvent free)(area) ([3]; 25° C.±2° C., 60% RH±5% RH, T0): 101.6%
- Polymorphism by XRPD ([3]; 25° C.±2° C., 60% RH±5% RH, T0): Form II
- Total impurities by HPLC ([3]; 25° C.±2° C., 60% RH±5% RH, T0): impurities: 1.0%
- Water Content ([3]; 25° C.±2° C., 60% RH±5% RH, T0): 1.8%
- Assay by HPLC (water and solvent free)(area) [3, 5]: 101.4%
- Polymorphism by XRPD [3, 5]: Form II
- Total impurities by HPLC [3, 5]: impurities: 1.1%
- Water Content [3, 5]: 1.6%
- Assay by HPLC (water and solvent free)(area) [3, 6]: 101.2%
- Polymorphism by XRPD [3, 6]: Form II
- Total impurities by HPLC [3, 6]: impurities: 1.0%
- Water Content [3, 6]: 1.4%
- Assay by HPLC (water and solvent free)(area) ([3]; 40° C.±2° C., 74% RH±5% RH, T0): 101.6%
- Polymorphism by XRPD ([3]; 40° C.±2° C., 74% RH±5% RH, T0): Form II
- Total impurities by HPLC ([3]; 40° C.±2° C., 74% RH±5% RH, T0): impurities: 1.0%
- Water Content ([3]; 40° C.±2° C., 74% RH±5% RH, T0): 1.8%
- Assay by HPLC (water and solvent free)(area) [3, 7]: 101.4%
- Polymorphism by XRPD [3, 7]: Form II
- Total impurities by HPLC [3, 7]: impurities: 1.1%
- Water Content [3, 7]: 1.5%
- Assay by HPLC (water and solvent free)(area) [3, 8]: 101.4%
- Polymorphism by XRPD [3, 8]: Form II
- Total impurities by HPLC [3, 8]: impurities: 1.1%
- Water Content [3, 8]: 1.5%
- Solubility ([4]; FaSSIF (pH of media 6.5), 0.5 h): 0.019 mg/mL
- Solubility ([4]; FaSSIF (pH of media 6.5), 2 h): 0.023 mg/mL
- Solubility ([4]; FaSSIF (pH of media 6.5), 24 h): 0.006 mg/mL
- Solubility ([4]; FeSSIF (pH of media 5.0), 0.5 h): 0.064 mg/mL
- Solubility ([4]; FeSSIF (pH of media 5.0), 2 h): 0.069 mg/mL
- solubility at 24 h ([4]; Fed State Simulated Intestinal Fluid (FeSSIF), 37 °C, pH 5, fessif, thermodynamic from solid, FeSSIF (pH of media 5.0), 24 h): 0.057 mg/mL
- Solubility ([4]; SGF (pH of media 1.2), 0.5 h): 2.550 mg/mL
- Solubility ([4]; SGF (pH of media 1.2), 2 h): 2.591 mg/mL
- Solubility ([4]; SGF (pH of media 1.2), 24 h): 3.372 mg/mL
- Solubility in SGF (in words) ([4]; SGF, comparison with HCl Salt Form 1): more soluble in SGF than HCl Salt Form 1
- Solubility ([4]; Water (pH of media 7.9), 0.5 h): 0.716 mg/mL
- Solubility ([4]; Water (pH of media 7.9), 2 h): 0.696 mg/mL
- Solubility ([4]; Water (pH of media 7.9), 24 h): 0.919 mg/mL
- pH ([4]; pH of sample in FaSSIF (pH of media 6.5), 0.5 h): 6.4
- pH ([4]; pH of sample in FaSSIF (pH of media 6.5), 2 h): 6.4
- pH ([4]; pH of sample in FaSSIF (pH of media 6.5), 24 h): 6.4
- pH ([4]; pH of sample in FeSSIF (pH of media 5.0), 0.5 h): 4.9
- pH ([4]; pH of sample in FeSSIF (pH of media 5.0), 2 h): 4.9
- pH ([4]; pH of sample in FeSSIF (pH of media 5.0), 24 h): 4.9
- pH ([4]; pH of sample in SGF (pH of media 1.2), 0.5 h): 1.2
- pH ([4]; pH of sample in SGF (pH of media 1.2), 2 h): 1.4
- pH ([4]; pH of sample in SGF (pH of media 1.2), 24 h): 1.4
- pH ([4]; pH of sample in Water (pH of media 7.9), 0.5 h): 4.9
- pH ([4]; pH of sample in Water (pH of media 7.9), 2 h): 4.8
- pH ([4]; pH of sample in Water (pH of media 7.9), 24 h): 6.0
